# Experimental data from ChEMBL document CHEMBL1201862, “PubChem BioAssay data set” (2004).
# Activity calls are given as the source filed them.
# Tests used:
# [1] = Artemis endonuclease inhibitor potency, dose response, biochemical, fluorescence intensity (AID 720701); type: functional;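 note: Artemis endonuclease enzyme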
# [2] = THP-1 cell cytotoxicity, dose response, cytotoxicity control for Vif-APOBEC3G degradation inhibitor project, THP-1 cells (AID 1117359); type: functional; conditions: Human immunodeficiency virus 1, THP-1
# [3] = HEp-2 cell cytotoxicity, dose response, cytotoxicity control for RSV inhibitor project, HTS (AID 2410); type: functional; conditions: human respiratory syncytial virus
# [4] = HEK293 cell cytotoxicity, dose response, cytotoxicity control, plate reader, cherry-picked samples (AID 743446); type: functional, cell-based
# [5] = MC4R antagonists, dose response, counter-screen for LGR2 antagonist project, cell-based, plate reader, cherry pick (AID 743444); type: functional;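 note: transfected HEK 293 cells stimulated with alpha-MSH peptide; potency of inhibitors of the alpha-MSH evoked signal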
# [6] = target: Luciferin 4-monooxygenase (Photinus pyralis, UniProt P08659); experiment: Counter Screen for Luciferase-based Assay Positives. [Related pubchem assays: 620, 618, 411 ]
# [7] = target: T1, Calpain-2 catalytic subunit (Sus scrofa, UniProt P43367); experiment: pig calpain II inhibitor potency, dose response, biochemical, fluorogenic peptide substrate (AID 1420); type: functional
# T1 sequence (P43367 whole entry): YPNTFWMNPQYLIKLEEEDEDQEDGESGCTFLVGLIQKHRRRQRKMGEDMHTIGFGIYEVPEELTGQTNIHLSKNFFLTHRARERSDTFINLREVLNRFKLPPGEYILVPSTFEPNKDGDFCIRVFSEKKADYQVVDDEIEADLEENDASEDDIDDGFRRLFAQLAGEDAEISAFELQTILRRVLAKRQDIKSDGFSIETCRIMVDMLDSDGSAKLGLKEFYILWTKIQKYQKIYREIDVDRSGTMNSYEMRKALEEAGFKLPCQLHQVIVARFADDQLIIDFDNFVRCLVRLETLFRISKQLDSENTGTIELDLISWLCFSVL
# HT-1080 = experiment: cytotoxicity in HT1080 fibrosarcoma cells, cell-based, fluorescence readout (AID 620); type: functional; conditions: Homo sapiens
# [8] = LGR2 antagonists, dose response, cell-based, HEK293, CRE-luciferase reporter, cherry pick, set 2 (AID 743343); type: functional;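 note: transfected cells were stimulated with diluted bursicon conditioned medium after compound addition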
# [9] = HepG2 cell cytotoxicity, dose response, cytotoxicity control, plate reader, cherry-pick, antagonist series (AID 743416); type: functional, cell-based
# [10] = A549 cell cytotoxicity, dose response, cytotoxicity control, plate reader, cherry-pick, antagonist series (AID 743412); type: functional, cell-based
# [11] = target: T2, 1-phosphatidylinositol 4,5-bisphosphate phosphodiesterase beta-3 (Homo sapiens, UniProt Q01970); experiment: Fluorescence-based biochemical high throughput dose response assay to identify inhibitors of phospholipase C isozymes (PLC-B3).
# T2 sequence (Q01970 whole entry): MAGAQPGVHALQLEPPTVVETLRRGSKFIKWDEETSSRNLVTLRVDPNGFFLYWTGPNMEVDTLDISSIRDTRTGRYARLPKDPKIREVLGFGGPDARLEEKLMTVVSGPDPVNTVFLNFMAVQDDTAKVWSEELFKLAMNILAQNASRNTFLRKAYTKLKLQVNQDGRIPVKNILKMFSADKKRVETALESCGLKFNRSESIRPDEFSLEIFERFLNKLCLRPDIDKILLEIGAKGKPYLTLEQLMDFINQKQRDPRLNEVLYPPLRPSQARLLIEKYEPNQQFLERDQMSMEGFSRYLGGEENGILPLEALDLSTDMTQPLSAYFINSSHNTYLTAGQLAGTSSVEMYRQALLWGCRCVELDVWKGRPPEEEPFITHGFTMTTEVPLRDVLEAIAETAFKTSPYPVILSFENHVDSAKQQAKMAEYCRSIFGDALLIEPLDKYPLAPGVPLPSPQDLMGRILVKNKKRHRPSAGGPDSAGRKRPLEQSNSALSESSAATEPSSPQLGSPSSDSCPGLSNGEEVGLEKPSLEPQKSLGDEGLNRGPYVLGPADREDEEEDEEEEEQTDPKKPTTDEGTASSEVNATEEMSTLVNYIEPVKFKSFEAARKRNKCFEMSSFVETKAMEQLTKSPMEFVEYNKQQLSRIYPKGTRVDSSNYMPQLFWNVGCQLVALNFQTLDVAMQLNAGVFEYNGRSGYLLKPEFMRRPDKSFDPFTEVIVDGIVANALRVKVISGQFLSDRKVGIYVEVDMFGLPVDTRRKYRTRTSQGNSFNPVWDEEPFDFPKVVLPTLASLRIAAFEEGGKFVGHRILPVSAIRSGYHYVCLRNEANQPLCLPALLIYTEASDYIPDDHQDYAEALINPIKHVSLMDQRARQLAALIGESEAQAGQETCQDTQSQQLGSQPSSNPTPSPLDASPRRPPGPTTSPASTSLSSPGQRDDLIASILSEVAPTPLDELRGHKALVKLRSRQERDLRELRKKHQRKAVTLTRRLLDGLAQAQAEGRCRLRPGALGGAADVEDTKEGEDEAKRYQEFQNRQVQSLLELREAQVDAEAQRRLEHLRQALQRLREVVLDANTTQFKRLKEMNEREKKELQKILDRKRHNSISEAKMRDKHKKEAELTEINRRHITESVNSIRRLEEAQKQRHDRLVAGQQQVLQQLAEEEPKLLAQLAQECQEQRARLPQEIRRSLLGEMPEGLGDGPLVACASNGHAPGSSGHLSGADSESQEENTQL
# [12] = target: T3, 1-phosphatidylinositol 4,5-bisphosphate phosphodiesterase gamma-1 (Homo sapiens, UniProt P19174); experiment: Counterscreen for inhibitors of phospholipase C isozymes (PLC-B3): Fluorescence-based biochemical high throughput dose response assay to identify inhibitors of phospholipase C isozymes (PLC-gamma1).
# T3 sequence (P19174 whole entry): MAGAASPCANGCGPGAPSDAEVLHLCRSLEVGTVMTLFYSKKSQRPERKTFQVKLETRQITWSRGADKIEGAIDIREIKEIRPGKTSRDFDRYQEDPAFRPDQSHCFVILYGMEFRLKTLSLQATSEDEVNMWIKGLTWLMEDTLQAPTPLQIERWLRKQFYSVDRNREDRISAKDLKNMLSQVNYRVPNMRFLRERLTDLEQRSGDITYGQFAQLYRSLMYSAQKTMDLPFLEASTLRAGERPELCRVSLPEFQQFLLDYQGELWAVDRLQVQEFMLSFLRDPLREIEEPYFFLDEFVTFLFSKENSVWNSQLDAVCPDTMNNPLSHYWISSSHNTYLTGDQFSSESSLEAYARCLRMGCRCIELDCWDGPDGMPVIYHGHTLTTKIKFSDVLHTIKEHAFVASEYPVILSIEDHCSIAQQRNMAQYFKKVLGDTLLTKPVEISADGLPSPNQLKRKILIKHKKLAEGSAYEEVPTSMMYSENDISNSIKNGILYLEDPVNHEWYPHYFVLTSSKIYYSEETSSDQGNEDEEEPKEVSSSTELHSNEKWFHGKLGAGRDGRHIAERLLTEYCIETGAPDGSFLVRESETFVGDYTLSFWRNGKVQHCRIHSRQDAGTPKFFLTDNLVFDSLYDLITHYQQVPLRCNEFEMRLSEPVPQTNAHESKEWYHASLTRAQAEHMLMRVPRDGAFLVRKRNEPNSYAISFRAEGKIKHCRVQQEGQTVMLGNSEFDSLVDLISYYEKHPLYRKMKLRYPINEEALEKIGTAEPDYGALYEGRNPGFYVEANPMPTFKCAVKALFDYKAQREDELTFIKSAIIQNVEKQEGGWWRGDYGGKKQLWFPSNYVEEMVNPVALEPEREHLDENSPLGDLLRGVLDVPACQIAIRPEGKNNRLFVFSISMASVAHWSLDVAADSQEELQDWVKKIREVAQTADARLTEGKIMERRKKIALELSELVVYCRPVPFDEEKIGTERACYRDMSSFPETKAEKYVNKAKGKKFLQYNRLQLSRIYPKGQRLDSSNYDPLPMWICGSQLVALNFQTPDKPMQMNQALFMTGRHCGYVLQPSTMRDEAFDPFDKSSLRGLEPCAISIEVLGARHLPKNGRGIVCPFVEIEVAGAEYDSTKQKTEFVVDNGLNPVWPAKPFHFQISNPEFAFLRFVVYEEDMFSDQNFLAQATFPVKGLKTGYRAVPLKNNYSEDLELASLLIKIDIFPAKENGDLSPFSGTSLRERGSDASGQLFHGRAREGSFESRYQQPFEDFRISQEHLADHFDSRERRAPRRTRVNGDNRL
# Estrogen receptor beta [13] = target: T4, Estrogen receptor beta (Homo sapiens, UniProt Q92731);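 note: recombinant ER-beta bound to coactivator SRC1 peptide in presence of estradiol agonist; inhibitors block coactivator peptide binding and lower the FRET signal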
# [14] = target: DNA dC->dU-editing enzyme APOBEC-3G (Homo sapiens, UniProt Q9HC16); type: functional;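 note: Dose-response counterscreen measuring inhibition of APOBEC3G DNA deaminase activity, run while confirming APOBEC3A inhibitors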
# Estrogen receptor beta [15] = target: T4, Estrogen receptor beta; experiment: ERβ–SRC-3 coactivator interaction inhibitors, confirmation, orthogonal assay, biochemical, ELISA, streptavidin-HRP readout (AID 1060)
# [16] = target: DNA dC->dU-editing enzyme APOBEC-3A (Homo sapiens, UniProt P31941); experiment: Dose Response confirmation of small molecule APOBEC3A DNA Deaminase Inhibitors via a fluorescence-based single-stranded DNA deaminase assay. [Related pubchem assays (depositor defined):AID493011, AID493024]; type: functional
# [17] = P. falciparum late gametocyte killing, dose response, luminescence (AID 1117278); type: functional, cell-based;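 note: gametocytes exposed to compound for 24 hours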
# [18] = Jurkat T cell cytotoxicity, dose response, cytotoxicity control for P. falciparum gametocyte viability project, luminescence (AID 1117277); type: functional, cell-based;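 note: potency reflects loss of cellular ATP meaning fewer viable cells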
# [19] = Luminescence Cell-Based Dose Retest to Confirm Inhibitors of Cancer Stem Cells. [Related pubchem assays (depositor defined):AID2717, AID2721]; type: functional; conditions: Homo sapiens
# INS1 = experiment: beta cell apoptosis inhibitors, cytokine rescue, dose response, luminescence, retest (AID 449756); type: functional, cell-based; conditions: Rattus norvegicus;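 note: cell death triggered by IL-1 beta plus TNF-alpha plus IFN-gamma mixture; protective hits raise ATP signal compared with cytokine alone wells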
# Paired box protein Pax-8 = Paired box protein Pax-8 (Homo sapiens, UniProt Q06710); experiment: inhibitors of PAX8-driven TPO luciferase reporter, dose response, RMG-I cells, cherry-pick (AID 687027); type: functional, cell-based;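 note: luciferase reporter driven by Pax8 target thyroperoxidase promoter measured by SteadyGlo luminescence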
# [20] = non-specific cell cytotoxicity, dose response, cytotoxicity control for PAX8 inhibitor project, plate reader, dry powder samples (AID 743021); type: functional, cell-based
# [21] = cytotoxicity in OVCAR8 ovarian cancer cells, dose response, PAX8 project, cell-based, plate reader, dry powder samples (AID 743197); type: functional; conditions: OVCAR-8
# [22] = NIH:OVCAR-3 ovarian cancer cell cytotoxicity, dose response, PAX8 inhibitor project, plate reader, dry powder samples (AID 743044); type: functional, cell-based
# T4 sequence (Q92731 whole entry): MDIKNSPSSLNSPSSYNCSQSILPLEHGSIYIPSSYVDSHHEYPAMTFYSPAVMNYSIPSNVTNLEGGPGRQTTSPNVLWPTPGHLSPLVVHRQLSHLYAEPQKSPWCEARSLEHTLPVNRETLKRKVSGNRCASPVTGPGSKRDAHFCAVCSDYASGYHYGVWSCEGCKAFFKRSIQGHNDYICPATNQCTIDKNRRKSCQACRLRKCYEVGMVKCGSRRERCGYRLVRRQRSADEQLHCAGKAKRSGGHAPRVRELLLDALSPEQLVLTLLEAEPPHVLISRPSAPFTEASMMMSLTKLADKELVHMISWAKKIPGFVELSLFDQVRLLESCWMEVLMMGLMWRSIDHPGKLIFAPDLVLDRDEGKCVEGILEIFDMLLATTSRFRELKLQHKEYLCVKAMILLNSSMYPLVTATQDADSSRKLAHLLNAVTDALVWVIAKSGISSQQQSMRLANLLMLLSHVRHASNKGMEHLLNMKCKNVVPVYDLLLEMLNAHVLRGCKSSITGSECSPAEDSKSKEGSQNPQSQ
# Paired box protein Pax-8, sequence (Q06710 whole entry): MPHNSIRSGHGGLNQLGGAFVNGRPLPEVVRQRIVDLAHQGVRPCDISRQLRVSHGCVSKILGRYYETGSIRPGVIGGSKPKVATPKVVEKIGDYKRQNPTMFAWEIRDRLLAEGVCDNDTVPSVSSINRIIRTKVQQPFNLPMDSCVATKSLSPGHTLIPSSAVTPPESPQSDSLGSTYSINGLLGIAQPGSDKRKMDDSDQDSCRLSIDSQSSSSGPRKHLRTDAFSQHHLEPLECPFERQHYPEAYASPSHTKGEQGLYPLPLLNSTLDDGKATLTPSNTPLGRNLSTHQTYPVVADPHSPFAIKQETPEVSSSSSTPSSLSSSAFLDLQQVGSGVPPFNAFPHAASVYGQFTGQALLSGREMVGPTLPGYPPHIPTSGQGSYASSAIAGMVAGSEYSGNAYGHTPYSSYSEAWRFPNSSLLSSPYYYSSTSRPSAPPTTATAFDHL
# Luciferin 4-monooxygenase, sequence (P08659 whole entry): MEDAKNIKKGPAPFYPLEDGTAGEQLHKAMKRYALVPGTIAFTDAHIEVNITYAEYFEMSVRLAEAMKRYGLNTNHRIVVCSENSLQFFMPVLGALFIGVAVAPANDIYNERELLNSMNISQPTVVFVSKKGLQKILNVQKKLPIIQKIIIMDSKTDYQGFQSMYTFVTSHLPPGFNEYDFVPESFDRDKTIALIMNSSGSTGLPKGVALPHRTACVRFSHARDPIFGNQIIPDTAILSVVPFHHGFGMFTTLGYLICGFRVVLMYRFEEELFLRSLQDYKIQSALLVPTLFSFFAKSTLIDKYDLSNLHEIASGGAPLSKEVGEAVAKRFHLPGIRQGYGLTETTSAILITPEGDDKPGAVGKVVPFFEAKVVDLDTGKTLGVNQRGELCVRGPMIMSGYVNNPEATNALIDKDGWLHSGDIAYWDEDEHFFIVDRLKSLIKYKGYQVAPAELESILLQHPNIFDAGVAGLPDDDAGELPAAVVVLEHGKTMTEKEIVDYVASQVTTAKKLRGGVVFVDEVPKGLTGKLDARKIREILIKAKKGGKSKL
# DNA dC->dU-editing enzyme APOBEC-3A, sequence (P31941 whole entry): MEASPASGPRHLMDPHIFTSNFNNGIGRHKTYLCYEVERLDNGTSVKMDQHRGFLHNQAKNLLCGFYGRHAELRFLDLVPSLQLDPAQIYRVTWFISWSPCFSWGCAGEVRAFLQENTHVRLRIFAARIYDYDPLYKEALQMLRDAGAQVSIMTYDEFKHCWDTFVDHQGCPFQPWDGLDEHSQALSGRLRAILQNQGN
# DNA dC->dU-editing enzyme APOBEC-3G, sequence (Q9HC16 whole entry): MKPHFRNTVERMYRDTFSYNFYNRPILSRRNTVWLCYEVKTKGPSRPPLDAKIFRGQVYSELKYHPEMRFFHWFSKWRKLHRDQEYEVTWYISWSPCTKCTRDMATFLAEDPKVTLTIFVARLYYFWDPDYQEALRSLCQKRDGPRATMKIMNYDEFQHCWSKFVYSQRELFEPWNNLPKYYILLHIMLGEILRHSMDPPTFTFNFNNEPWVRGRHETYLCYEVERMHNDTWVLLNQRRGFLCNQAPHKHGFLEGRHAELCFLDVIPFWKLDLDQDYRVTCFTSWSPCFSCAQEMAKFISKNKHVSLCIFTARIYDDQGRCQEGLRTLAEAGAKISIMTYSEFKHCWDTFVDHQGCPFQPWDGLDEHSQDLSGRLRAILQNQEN
compound,measurement,setting,value
CCOC(=O)N1CCN(Cc2nc(N)nc(Nc3ccc(Oc4ccccc4)cc3)n2)CC1,IC50,[1],> 20 µM (inactive)
CCN=c1ccc(Br)cc(C(=O)/C=C/c2ccc3c(c2)OCO3)c1O,CC50,[2],32.6 µM (active)
same,IC50,[1],> 20 µM (inactive)
same,CC50,[3],13.8 µM (active)
Cc1ccnc(Nc2nc3ccccc3o2)n1,AC50,[4],30.1 µM (active)
same,AC50,[5],4.77 µM (active)
same,EC50,[6],3.04 µM (active)
same,IC50,[7],> 50 µM (not active)
same,EC50,HT-1080,> 50 µM (not active)
same,AC50,[8],5.98 µM (active)
same,AC50,[9],46.8 µM (active)
same,AC50,[10],43.5 µM (active)
O=C(NCc1ccccc1)c1[nH]nnc1-c1ccccc1O,IC50,[11],> 122 µM (inactive)
same,IC50,[12],108 µM (inactive)
O=C1N=C(S)SC1=C1CCCC1,IC50,Estrogen receptor beta [13],> 50 µM (not active)
same,IC50,[14],7.39 µM (active)
same,IC50,Estrogen receptor beta [15],0.24 µM (not active)
same,IC50,[11],> 122 µM (inactive)
same,IC50,[12],47.5 µM (inactive)
same,IC50,[16],5.61 µM (active)
CCOC(=O)c1c(NC(=O)CSc2nnc(-c3ccco3)o2)sc(C)c1C,IC50,[17],> 109 µM (inactive)
same,IC50,[18],> 83.3 µM (inactive)
FC(F)(F)c1cnc(Oc2ccccc2-c2nnc(-c3ccc(Cl)cc3)o2)c(Cl)c1,IC50,[11],> 123 µM (inactive)
same,IC50,[12],> 123 µM (inactive)
Cc1nnc2sc(SCC(=O)Nc3ccc(Br)cc3)nn2c1=O,IC50,[17],> 109 µM (inactive)
same,IC50,[18],> 83.3 µM (inactive)
O=C(C[C@@H]1C/C=C/CC[C@H](Cc2ccc(F)cc2)C(=O)OC[C@@H](Cc2ccccc2)NC1=O)N[C@H](CO)Cc1ccccc1,AC50,[19],0.956 µM (active)
same,AC50,INS1,5 µM (active)
same,AC50,Paired box protein Pax-8,15 µM (active)
same,AC50,[20],33.4 µM (active)
C[C@@H]1CCCCO[C@H](CN(C)Cc2ccc(C(F)(F)F)cc2)[C@H](C)CN([C@H](C)CO)C(=O)c2cc(NC(=O)c3ccccc3)ccc2O1,AC50,[21],45.2 µM (active)
same,AC50,[22],43.7 µM (active)
same,AC50,Paired box protein Pax-8,10.1 µM (active)
